Measurements taken from patent publication US20220135564A1, “DEUTERATED MITRAGYNINE ANALOGS AS SAFER OPIOID MODULATORS IN THE MITRAGYNINE CLASS” (The Trustees of Columbia University in the City of New York, priority 2019, published 2022).
Where a name gives a salt, the structure may show the parent alone.

Key:
male mice (C57BL/6J) = experiment: Rotarod test in mice (motor coordination); type: in vivo, mouse; conditions: male C57BL/6J mice, s.c., cumulative 3, 10, 30 mg/kg, compared to vehicle
Description: The rotarod test is useful for measuring the motor coordination of rodents and therefore, for identifying test drugs that induce ataxic effects. 3-Dehydromitragynine (DHM) reduces the performance of mice in this test in a dose-dependent manner; indicating an impairment of motor coordination by this compound (FIG. 1).
Animals. This study was conducted using male C57BL/6J mice, 7 weeks of age (n=10/treatment), purchased from The Jackson Laboratory (Bar Harbor, Me.). Animals were housed in groups of five and allowed to acclimate for 1 week prior to testing. Mice had ad libitum access to food and water and were maintained on a 12-hour light/dark cycle. All testing was done in the light cycle.
Drug. DHM hydrochloride was dissolved in double-distilled H2O containing 10% N-methyl-2-pyrrolidone (NMP). Drug or vehicle was administered subcutaneously 15 minutes prior to the start of behavioral testing at a volume of 10 mL/kg body weight. Dosing was performed cumulatively at 3, 10, and 30 mg/kg, with 1 hour between injections.
Rotarod Testing. On the test day, animals were acclimated to the testing room for 1 hour. An accelerating rotarod (Model 7650, UGO Basile, Comeria, VA, Italy) was used to measure the motor coordination of the animals. Time on the rotarod was measured by stopwatch, starting when animals were placed on the rod and ending at the time the animal fell off the apparatus. […]

[1] = Metabolic profiling of DHM in mouse liver S9 fraction (MS9); type: in vitro ADME; conditions: DHM 10 μM, MS9, 60-min incubation, positive ion mode
Description: Analytical System. The metabolic profiling of DHM in mouse liver S9 fraction was performed using high performance liquid chromatography-tandem mass spectrometry (HPLC-MS/MS). A Shimadzu HPLC system comprising 2 isocratic pumps (LC-10ADvp), an autosampler (SIL-30ACMP), a system controller (CBM-20A), a high-pressure switching valve (FCV-20AH6), and a degasser (DGU-14A) was used for separations. Mass spectrometric analyses were performed using an API 4000 QTRAP mass spectrometer from Applied Biosystems/MDS Sciex (AB Sciex) with Turbo V ion source and TurboIonspray interface. Data acquisition and system control was performed using Analyst 1.6.3 software from AB Sciex.
Liver S9 Incubations. Liver S9 fraction pooled from male CD-1 mice was used. Incubations were carried out in 1.1 mL microtubes (in 96-well format plate) in aliquots of 40 μL each (2 for each time point; 0, 6, 16, 30, and 60 min). […] Control incubations were performed replacing the cofactor system with phosphate buffer. Test compound DHM (10 μM, final solvent concentration 1.6%) was incubated with S9 at 37° C., shaking at 100 rpm. Incubations were performed in duplicate. Five time points over 60 minutes (0, 6, 16, 30, and 60 min) were analyzed. […] Supernatants (two time points, 0 and 60 min) were analyzed for remaining parent compound and putative metabolites by HPLC-MS/MS.
General Strategy for Identification of Metabolites. […]

[2] = system: mice (129Sv6 or CD-1 strain); experiment: Lethality assay in mice; type: in vivo, mouse; conditions: s.c., lethality 24 h after administration
Description: Lethality Assay. Groups of mice (n=6 per dose, 129Sv6 or CD-1 strain) were treated subcutaneously (s.c.) with different doses of DHM and tested for lethality 24 h after drug administration.

mice = experiment: Analgesic activity of DHM in mice; type: in vivo, mouse

## CC[C@@H]1C[N+]2=C(C[C@@H]1/C(=C\OC)C(=O)OC)c1[nH]c3cccc(OC)c3c1CC2 [DHM, 3-Dehydromitragynine hydrochloride]
Male mice (C57BL/6J)
  motor coordination, latency to fall in the rotarod test: dramatically impairs motor coordination
[1]
  % Area: 20%
[2]; 129Sv6 mice
  LD50 (95% confidence interval): 48.4 (71.27-342.3) mg/kg
[2]; CD-1 mice
  LD50 (95% confidence interval): 74 (48.08-120.5) mg/kg
mice
  analgesic activity on its own: does not exhibit analgesic activity
